# Data published in patent US9657071B2, “IgE peptide vaccine” (NIPPON ZENYAKU KOGYO CO., LTD., priority 2012, dated 2017).
# Experiments:
# [1] = test system: human IgE; assay: Test using dog (Part 1): IgG antibody against human IgE (ELISA); format: in vivo; details: healthy beagles 8 months old, s.c. 1 mg five times at 2-week intervals, no adjuvant
# Description: The peptide (M4-7-11) was concentration-adjusted to 2 mg/mL with saline, dispensed in an amount of 500 μL, and used as a vaccine. […] The vaccine administration method was subcutaneous administration of 1 mg per dose, which was performed five times at 2-week intervals. Another purpose of this test was to study the frequency of administration of the vaccine.
# Dog: 4 healthy beagles (8 months old; 2 males and 2 females) were used.
# Vaccine: the M4-7-11 peptide was used alone without being conjugated.
# Administration method: 1 mg (500 μl, of 2 mg/mL) per dose was subcutaneously administered five times at 2-week intervals.
# Evaluation: serum was collected approximately once per week, and an IgG antibody against human IgE was assayed by ELISA. Since dog IgE nonspecifically reacts with an anti-dog IgG antibody, human IgE having no nonspecific reaction was used in ELISA.
# Human IgE (Athens Research And Technology, Inc.; IgE, human Myeloma Plasma) was prepared at 1 μg/mL in an immobilization buffer (0.05 M carbonate buffer, pH 9.6), then added at a concentration of 100 μL/well to an ELISA plate, and left overnight at 4° C. The immobilization plate was washed once with PBS-T (0.05%). […] Then, the measurement was performed using a plate reader (Bio-Rad Laboratories, Inc.; model 680) (dual: measurement: 450 nm, control: 570 nm). […]
# [2] = test system: anti-dog IgE monoclonal antibodies; assay: Epitope analysis of synthetic IgE CH3 region peptides by ELISA; format: binding; details: peptide immobilized 100 ng/well, ELISA with anti-IgE monoclonal antibodies
# Description: Epitope analysis was conducted on mouse monoclonal antibodies binding to a dog IgE antibody and rat monoclonal antibodies binding to dog and mouse IgE antibodies. Mouse anti-dog IgE antibodies (clone name: CCH3-4, CCH5-5, CCH3-12, CCH3-13, CCH3-14, and CCH3-15) were prepared from mice immunized with the dog IgE CH3 (Cε3) region gene. Also, anti-IgE monoclonal antibodies (clone name: X-1, X-2, CCH3-21, and CCH3-22) were prepared from rats immunized with the dog and mouse IgE CH3 (Cε3) region genes. These antibodies were used as samples to synthesize synthetic peptides (SEQ ID NOs: 2 to 20 and 22 to 26) of the dog and mouse IgE peptide CH3 (Cε3) regions consisting of the sequences shown in FIG. 1-1. The epitope analysis was conducted by ELISA. […] The anti-dog IgE monoclonal antibodies that responded to the peptide were detected using secondary antibodies (anti-mouse IgG HRP (horseradish peroxidase)-labeled antibody for the anti-dog IgE antibodies prepared using mice, and anti-rat IgG HRP-labeled antibody for the anti-dog IgE antibodies prepared using rats).
# [3] = test system: cat IgE; assay: Reactivity of serum of peptide-immunized rabbit with cat IgE recombinant CH3 (ELISA); format: in vivo; details: 500 μg peptide + complete adjuvant s.c.
# Description: 2 mL of the 250 μg/mL peptide (a total of 500 μg) used in Example 2 was mixed with an equal amount of a complete adjuvant (a total of 4 mL). Each rabbit was immunized with this mixture by the subcutaneous administration (amount of the peptide: 500 μg) at day 0 and weeks 2, 4, 6, and 8. Blood was collected 5 weeks after the week-8 administration (week 13 counted from day 0). Booster immunization was performed at week 14 counted from day 0, and blood was further collected 2 weeks thereafter (week 16 counted from day 0). Antibody titers in the collected blood were measured by ELISA. The serum of a rabbit that received no peptide was used as a control.
# ELISA was performed by the following method: each […] recombinant CH3 solution of dog IgE, human IgE, mouse IgE, dog IgG, and cat IgE was immobilized at a concentration of 100 μL/well (100 ng/well) to a plate. The serum collected from the immunized rabbit was used (×200 to ×102400) as a primary antibody. An enzyme-labeled anti-rabbit IgG antibody (Zymed Laboratories Inc.) was used as a secondary antibody.
Sequence,level of the IgG antibody against IgE [1],level of the IgG antibody against IgE ([1]; listed as M4-11-17),epitope in IgE CH3 region peptide [2],response of immobilized cat IgE to peptide-administered rabbit serum [3]
KKTSVSASQWYTKHHNNATT (listed as Mus musculus) [M4-7-11],confirmed to elevate,a rise in the level of the IgG antibody against IgE,–,–
QEKKTSVSASQWYTKHHNNATTSIT (listed as Mus musculus) [MOUSE CH3-4-17-11],–,–,peptide of an epitope region,responded
